From patent US8198252B2, “SIRNA inhibition of PI3K P85, P110, and AKT2 and methods of use” (Board of Regents, The University of Texas System, priority 2006, dated 2012)

How the values were obtained:
HT29-GFP cells = experiment: Liver metastasis establishment by cells transfected with siRNA in vitro; assay type: in vivo, mice; settings: three weeks
Protocol: (§1) In Vivo Experiments. For in vivo studies, 4- to 6-week-old male nude^nu/nu mice were obtained from Harlan Sprague Dawley (Indianapolis, Ind.) and housed in clean, pathogen-free rooms in an environment with controlled temperature (22° C.), humidity, and a 12 hours light/dark cycle. The mice were fed standard chow (Formula Chow 5008; Purina Mills, St. Louis, Mo.) and tap water ad libitum and allowed to acclimate for 1 week. All studies were approved by the Institutional Animal Care and Use Committee of UTMB. Tumor cells were injected intrasplenically by methods previously described (Bruns et al., Neoplasia, 1:50-62 (1999)). Briefly, mice were anesthetized with halothane, a small left abdominal flank incision was created, and the spleen was exteriorized. Transfectants were harvested using only trypsin and resuspended as a single-cell suspension in Hanks Balanced Salt Solution, free of Mg^2+ and Ca^2+. Tumor cells (5×10^6 cells/400 μL) were injected into the spleen with a 27-gauge needle. The spleen was returned to the abdomen, and the wound was closed in one layer with wound clips. The mice were observed over the indicated time period using the Illumatool TLS (Lightools Research, Encinitas, Calif.). Animals were randomized into 3 experimental groups (5 animals per group) to receive p85α, p110α, or NTC siSTABLE siRNA (20 μg/mice, qod) by hydrodynamic tail vein injection (Watanabe et al., Gastroenterology, 128:1391-1404 (2005)) 24 hours after operation; mice were killed 35 days later. Experiments were performed in duplicate.
(§2) Methods of cells transfection and liver metastasis establishment are described in Example 1.
(§3) Akt2 is essential for colorectal cancer metastasis establishment. To determine whether Akt2 plays a causal role in colorectal cancer metastasis, we tested whether inhibition of Akt2 expression in the highly metastatic colorectal cancer cells would affect their metastatic ability. HT29^GFP or KM20^GFP cells were transfected with NTC (purchased from Dharmacon Inc.) or Akt2 siRNA (GUACUUCGAUGAUGAAUUU, SEQ ID NO:20) in vitro and inoculated intrasplenically (5×10^6) 60 hours later. To avoid intrasplenic tumor growth, the spleen was removed after 24 h. Animals were monitored individually for metastatic tumor growth using the Illumatool TLS. Three weeks after implantation the mice were sacrificed and the liver was examined for metastatic lesions by inspection of GFP fluorescence. […] In addition, the sizes of individual metastatic nodules present in the liver of both groups of mice were very similar. […] We also suspect that incomplete suppression of Akt2 by siRNA in a small subset of cells account for the residual ability of such cells to form liver metastasis.

KM20-GFP cells = experiment: as above; assay type: in vivo, mice; settings: three weeks
Protocol: as §1, §2, §3

Akt2 = experiment: Western blot of Akt2 in the cells used for intrasplenic inoculation; assay type: cell-based, human; settings: before (0 h) or after (2 h) surgical procedure
Protocol: Protein Preparation and Western Immunoblot. Western immunoblot analyses were performed as described previously (Wang et al., Clin Cancer Res. 8:1940-1947 (2002)). Cells were lysed with TNN buffer at 4° C. for 30 minutes. Lysates were clarified by centrifugation (10,000 g for 30 minutes at 4° C.) and protein concentrations determined using the method of Bradford (Bradford, Anal Biochem., 72:248-254 (1976)). Briefly, total protein (60 μg) was resolved on a 10% polyacrylamide gel and transferred to Immobilon-P […] membranes. Filters were incubated overnight at 4° C. in blotting solution (Tris-buffered saline containing 5% nonfat dried milk and 0.1% Tween 20), followed by a 1-hour incubation with primary antibodies. Filters were washed 3 times in a blocking solution and incubated with horseradish peroxidase-conjugated secondary antibodies for 1 hour. After 3 additional washes, the immune complexes were visualized by ECL detection.
Akt2 is essential for colorectal cancer metastasis establishment. […] Animals were monitored individually for metastatic tumor growth using the Illumatool TLS. Three weeks after implantation the mice were sacrificed and the liver was examined for metastatic lesions by inspection of GFP fluorescence. […]

[1] = 5×10^6 intrasplenically 60 hours later, compared with NTC siRNA

Sequence: GUACUUCGAUGAUGAAUUU [Akt2 siRNA]
- macroscopically visible metastases in the liver (HT29-GFP cells; [1]): formed very few metastases
- number of micrometastatic lesions in the liver (histological analysis) (HT29-GFP cells): drastically reduced
- sizes of individual metastatic nodules in the liver, compared with NTC group (HT29-GFP cells): very similar
- macroscopically visible metastases in the liver (KM20-GFP cells; [1]): formed very few metastases
- number of micrometastatic lesions in the liver (histological analysis) (KM20-GFP cells): drastically reduced
- sizes of individual metastatic nodules in the liver, compared with NTC group (KM20-GFP cells): very similar
- Akt2 expression (Akt2; HT29-GFP cells used for intrasplenic inoculation): confirmed Akt2 downregulation
- Akt2 expression (Akt2; KM20-GFP cells used for intrasplenic inoculation): confirmed Akt2 downregulation
